Values belong to the molecule of their own block, whether it stands above or below them. Ends that are not written are not given here. * marks the point of attachment. Biotin = O=C1N[C@H]2[C@H](CS[C@H]2CCCCC(=O)*)N1
Columns and labels:
[1] = system: pep8–PCNA interaction (recombinant PCNA); assay: ELISA-based inhibition of biotin-pep8 binding to PCNA; design: species or system human; conditions: inhibitor 25 µg/ml 1 h, then biotin-pep8 5 µg/ml 1 h, room temperature, O.D. 650 nm
Protocol: To determine the ability of APIM-based peptide to suppress NKp44-pep8 interaction with PCNA, ELISA plates were coated with recombinant PCNA followed by PBS–skim milk added as described earlier. Plates were then incubated with 25 µg/ml of R11-NLS-pep8 (positive control), R11-NLS-pep8short (negative control), and APIM for 1 h at room temperature followed by addition of biotin-pep8 (5 µg/ml) without washing for 1 h at room temperature. Biotin-pep8 binding to PCNA was detected using streptavidin conjugated HRP (1 h at 1:500 dilution 100 μl/well). Following washing, TMB (100 μl/well DAKO, S1599) was added. O.D. was read at 650 nm (Thermo Electron Corporation Multiskan Spectrum).

[2] = system: B16 cells; assay: Flow cytometry based cell death assay (PI), B16; design: species or system murine; conditions: 0–8 µM, 24 h
Protocol: (§1) Peptides were diluted before the incubation with the target cells with free DMEM culture medium to 0–16 µM according to peptide molecular weight. For adding the peptides, 0.5 ml was removed from each well, and 0.5 ml of diluted peptides was added to a final volume of 1 ml, 5% FCS, duplicates. Peptides were incubated with target cells for 24 h, and then the medium was collected, adherent cells were removed with trypsin–EDTA (0.5 ml, 3 min, BI: 03-052-1B), 1 ml of complete medium was added to each well, and the medium was collected (final volume 2.5 ml, on ice). For the cell death assay, samples were then centrifuged (1,300 rpm, 4°C, 5 min), the medium was removed, fresh 1 ml 10% FCS was added, and then 1 µl of 1 mg/ml PI was added to each sample and incubated (15 min, on ice) with the target cells. Before analyzing the samples, samples were centrifuged (1,300 rpm, 4°C, 5 min), the medium was removed, and fresh 0.2 ml FCAS buffer (PBS 1×, 20% FCS, 0.5% NaN3) was added. Samples were then read and analyzed using BD FACSCanto™ II and FlowJo®. APIM peptide and camptothecin (CPT) were used as positive controls ([38], [54]–[56]). Specific cell death was calculated as following: Y = 100*((sample cell death − basal cell death)/(100 − basal cell death)). Basal cell death = % of PI positive cells following incubation in complete culture media.

[3] = system: 4T1 cells; assay: Flow cytometry based cell death assay (PI), 4T1; design: species or system murine; conditions: 4T1, PI flow cytometry, 0–8 µM, 24 h
Protocol: as §1

[4] = system: MDA-MB-231 cells; assay: Flow cytometry based cell death assay (PI), MDA-MB-231; design: species or system human; conditions: MDA-MB-231, PI flow cytometry, 0–8 µM, 24 h
Protocol: as §1

[5] = system: A549 lung carcinoma cells; assay: PrestoBlue cell viability, A549; type: cell-based, human; conditions: 24 h, peptides 0–8 µM, selenite 25 µM
Protocol: (§2) Target cells (2.5 × 10^4 cells/well of a 48-well plate, Corning) were seeded and incubated in 37°C, 5% CO2 for 24 h in 0.5 ml of fresh complete DMEM (10% FBS) culture medium. According to molecular weight peptides were diluted from 8 to 2 µM with 5% FBS containing DMEM culture medium just before the incubation with the target cells. Medium was removed from each well, and 250 µl of diluted peptides was added and incubated for another 24 h at 37°C, 5% CO2. PrestoBlue (A13261, Invitrogen™) solution was prepared by diluting the dye 10-fold with complete DMEM. Medium was discarded from each well, and 250 µl of PrestoBlue solution was added to each well, shake gently and incubated at 37°C for another 1 h. Emission at 560 nm was measured in Premium Quad4 Monochromators plate reader (Tecan). Normalization was done relative to the appropriate control (DMEM or DMSO) to calculate the percentage of viable cells in each group. Selenite (25 µM) was used as a positive control ([52], [53]).

[6] = system: 4T1 mammary carcinoma cells; assay: PrestoBlue cell viability, 4T1; type: cell-based, murine; conditions: 4T1, PrestoBlue, 24 h; peptides 0–8 µM; selenite 25 µM
Protocol: as §2

[7] = system: HepG2 hepatocellular carcinoma cells; assay: PrestoBlue cell viability, HepG2; type: cell-based, human; conditions: 24 h
Protocol: as §2

[8] = system: MDA-MB-231 breast adenocarcinoma cells; assay: PrestoBlue cell viability, MDA-MB-231; type: cell-based, human; conditions: MDA-MB-231, PrestoBlue, 24 h
Protocol: as §2

[9] = system: B16 melanoma cells; assay: PrestoBlue cell viability, B16; type: cell-based, murine; conditions: 24 h
Protocol: as §2

[10] = system: PANC-1 pancreas ductal adenocarcinoma cells; assay: PrestoBlue cell viability, PANC-1; type: cell-based, human; conditions: PANC-1, PrestoBlue, 24 h
Protocol: as §2

[11] = system: recombinant human PCNA (hPCNA); assay: ELISA binding of biotinylated NKp44-derived peptides to plate-bound recombinant PCNA; conditions: biotinylated peptide, 0–7.24 µM (Figure 1A), streptavidin-HRP, TMB, O.D. 650 nm
Protocol: The pET-28 or pMAL-c2x vectors were used to produce soluble human PCNA (hPCNA) in Rosetta™ 2 (DE3) cells. Plasmids containing the mRNA sequence of PCNA or TL1A, APO-E3, HNF4 were transformed into Rosetta™ 2 cells via heat shock and grown on LB agar plates with kanamycin and chloramphenicol. A fresh colony of transformed bacteria was grown overnight in a 5 ml of LB with kanamycin and chloramphenicol an incubator shaker set to 37°C and at 250 rpm. The next day, bacteria cells were diluted 1:100 into a 500 ml of LB with kanamycin and chloramphenicol (to discard dead cells) and grown to an optical density (O.D.) of 0.6–0.8 (λ = 650 nm). Isopropyl β-D-1-thiogalactopyranoside (0.5 mM) was added for the induction of the PCNA production, and cells were further incubated for 4 h at 26°C (hPCNA). Cells were then centrifuged and the pellet was resuspended with solution A (20 mM Tris–HCl pH 8.0, 0.5 M NaCl, 20 mM imidazole), sonicated six times (20 s with 40 s intervals) and sieved through […] (Sartorius Stedim Biotech) filter before loaded on a His-tag or Amylose resin beads. Purification of His-tagged proteins was done using a Gravity-flow Column with “HisPur™ Ni-NTA Resin” Bead kit (Thermo-Scientific) (binding capacity ≤ 60 mg of a 28 kDa 6xHis-tagged protein from a bacterial source per milliliter of settled resin) according to Kits Protocol. Purification of MBP-tagged proteins was done using the Amylose resin beads (Catalog # E8035S).
To determine the interaction between NKp44-derived peptides and PCNA, ELISA plates were coated overnight at 4°C with 2 µg/ml of the recombinant PCNA or TLA1 ([49]), APO-E3 ([50]), HNF4 ([4]), rhFc, rhNKp44-hFc ([12]), rhNKp46-hFc ([51]), and PBS 1× (negative controls). Blocking buffer (PBS + 2.5% skim milk) was applied for 2 h at room temperature, after that the plates were incubated with 0–8 µM of biotinylated NKp44-derived peptides or PBS 1× (background control) for 2 h at room temperature. NKp44-derived peptides binding to PCNA was detected using horseradish peroxidase (HRP)-conjugated to streptavidin (1 h at 1:500 dilution). Following washing, TMB (DAKO, S1599) was added. O.D. was read at 650 nm (Thermo Electron Corporation Multiskan Spectrum). Between each step, wells were washed three times with PBS containing 0.05% Tween 20 (PBST).

[12] = molecular target: T1, MBP-fused recombinant human PCNA (human, UniProt P12004 1-261); assay: SPR; ProteOn XPR36, GLC chip; peptides immobilised by EDC/S-NHS amine coupling; MBP-PCNA 0-250 nM as analyte at 25 µl/min; equilibrium analysis model; conditions: both partners purified
T1 construct: proliferating cell nuclear antigen, human; vector pMAL-c2x; Analyte of the SPR experiments; also called MBP-PCNA; hPCNA; source: E. coli Rosetta 2 (DE3), purified (amylose resin)

[13] = molecular target: T2, recombinant human PCNA (proliferating cell nuclear antigen) (human, UniProt P12004 1-261); assay: ELISA; plates coated overnight at 4°C with 2 µg/ml recombinant protein; blocked with PBS + 2.5% skim milk; 0-8 µM biotinylated NKp44-derived peptides, 2 h at room temperature; streptavidin-HRP; conditions: both partners purified
T2 construct: proliferating cell nuclear antigen, human; PCNA coated on ELISA plates; also called hPCNA; recombinant PCNA; source: E. coli Rosetta 2 (DE3), purified (Ni-NTA or amylose resin); not shown: His tag or MBP (from the vectors pET-28 or pMAL-c2x)
T2 sequence (P12004 whole entry): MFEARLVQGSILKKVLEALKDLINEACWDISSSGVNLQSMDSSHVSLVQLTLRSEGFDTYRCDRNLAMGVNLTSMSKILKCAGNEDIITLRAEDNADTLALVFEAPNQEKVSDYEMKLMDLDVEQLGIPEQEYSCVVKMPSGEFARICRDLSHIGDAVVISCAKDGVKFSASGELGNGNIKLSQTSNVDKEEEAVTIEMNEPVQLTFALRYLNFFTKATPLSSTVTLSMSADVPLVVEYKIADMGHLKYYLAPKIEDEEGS

T1 sequence (P12004 whole entry, the tested form may be a part): as the sequence (P12004 whole entry) above

Molecule: MDRWLVK-W-KKKRK-I-RRRRRRRRRRR [APIM, published PCNA-targeting peptide used as positive control, reference compound]
- inhibition of pep8 binding to PCNA [1]: 7%
- induction of cell death, in words [2]: strong induction of cell death
- induction of cell death, in words [3]: strong induction of cell death
- induction of cell death, in words [4]: strong induction of cell death

Molecule: O=[Se](O)O [Selenite, reference compound]
- effect on cell viability, in words [5]: significantly reduced cell viability
- effect on cell viability, in words [6]: significantly reduced cell viability

Molecule: RRRRRRRRRRR-I-KKKRK-W-VTSSKPRTVA [R11-NLS-pep8short, R11-NLS fused to pep8short, negative control]
- effect on cell viability, in words [5]: did not show any effect on tumor cell viability
- effect on cell viability, in words [7]: none to dull effect
- inhibition of pep8 binding to PCNA [1]: 10%
- induction of cell death, in words [2]: did not induce any cell death
- induction of cell death, in words [3]: did not induce any cell death
- effect on cell viability, in words [8]: none to dull effect
- effect on cell viability, in words [9]: none to dull effect
- effect on cell viability, in words [6]: did not affect 4T1 cell viability
- effect on cell viability, in words [10]: none to dull effect
- induction of cell death, in words [4]: did not induce any cell death

Molecule: CC[C@@]1(O)C(=O)OCc2c1cc1n(c2=O)Cc2cc3ccccc3nc2-1 [CPT, camptothecin, reference compound]
- induction of cell death, in words [2]: lower, but stable levels of cell death
- induction of cell death, in words [3]: lower, but stable levels of cell death
- induction of cell death, in words [4]: lower, but stable levels of cell death

B1: R11-NLS-pep8 (peptide)
peptide: RRRRRRRRRRRIKKKRKWEASALVCIRLVTSSKPRTVA
modifications: not fully specified (residue 38, N-terminus); printed as RRRRRRRRRRR-I-KKKRK-W-EASALVCIRLVTSSKPRTVA
notes: cell-penetrating moiety: R11, I, NLS stretch KKKRK, W; NKp44 (NCR2), amino acids 57-76 (pep8), with valine at 75 (SNP rs9471577); also called CPP-pep8; source: synthetic peptide (GL Biochem, purity > 95%)
- Kd [12]: 87 nM

B4: NKp44-derived pep8 (immobilised for SPR) (peptide)
peptide: EASALVCIRLVTSSKPRTVA
notes: NKp44 (NCR2), amino acids 57-76, with the natural SNP variant (rs9471577) valine at 75; also called NKp44-pep8; source: synthetic peptide
- Kd [12]: 490 nM

Next, values leading:

- binding to recombinant hPCNA [11]: negative binding
Molecule: YPPTGSLYEKKGWCKEASAL [pep5, NKp44-derived peptide used as negative control]

- binding to recombinant hPCNA [11]: does not bind PCNA
- binding to recombinant hPCNA ([11]; listed as 10-mer shared core sequence of pep8 and pep10): did not bind PCNA
Molecule: VTSSKPRTVA [pep8short, short form of pep8]

- binding result [13]: binds
B2: biotinylated NKp44-derived peptide #8 (peptide)
peptide: Biotin-EASALVCIRLVTSSKPRTVA
notes: NKp44 (NCR2), amino acids 57-76, with the natural SNP variant (rs9471577) valine at 75; also called pep8; NKp44-pep8; source: synthetic peptide (PEP screen, Sigma-Aldrich; selected peptides from GL Biochem)

- binding result [13]: binds
B3: biotinylated NKp44-derived peptide #10 (peptide)
peptide: Biotin-VTSSKPRTVAWTSRFTIWAA
notes: NKp44 (NCR2), amino acids 67-86, with valine at 75 (SNP rs9471577); also called pep10; NKp44-pep10; source: synthetic peptide (PEP screen, Sigma-Aldrich; selected peptides from GL Biochem)
